Drawing on ChEMBL document CHEMBL5260828, “Amphiphilic glycoconjugates as potential anti-cancer chemotherapeutics” (Eur J Med Chem, 2018), this text covers IC50 and GI50 for 5 molecules.

The structures appear in SMILES notation. In brackets after ≈: the same amount, converted by molar mass.

What is called IC50 is the concentration that gives 50% inhibition. Broadly, the GI50 is the concentration that inhibits growth by half.

The subject of data set [1] is Caco-2. As to the kind of experiment: Cytotoxicity against human Caco-2 cells incubated upto 96 hrs by MTT assay. The data set is classed as functional, cell-based. Conditions: Caco-2, 96 h. A general note: Formazan colour is commonly taken as a measure of viable cells.
Data set [2] concerns HT-29. Description: Cytotoxicity against human HT-29 cells incubated upto 96 hrs by MTT assay. The data set is classed as functional, cell-based. The conditions noted are these: HT-29, 96 h.
Data set [3] concerns T84. As to the kind of experiment: Cytotoxicity against human T84 cells incubated upto 96 hrs by MTT assay. Type of data set: functional, cell-based. The conditions noted are these: T84, 96 h.
The subject of data set [4] is T-24. Description: Cytotoxicity against human T24 cells assessed as inhibition of cell proliferation by propidium iodide assay. The data set is classed as functional, cell-based.
In data set [5] the test system is SF-268. As to the kind of experiment: Cytotoxicity against human SF-268 cells assessed as inhibition of cell proliferation by propidium iodide assay. The data set is classed as functional, cell-based.
In data set [6] the test system is HCT-116. Description: Cytotoxicity against human HCT-116 cells assessed as inhibition of cell proliferation by propidium iodide assay. The data set is classed as functional, cell-based.
The test system of data set [7] is HT-29. As to the kind of experiment: Cytotoxicity against human HT-29 cells assessed as inhibition of cell proliferation by propidium iodide assay. Type of data set: functional, cell-based.
Data set [8] deals with Lung LXF 629L tumor cell line. Description: Cytotoxicity against human Lung LXF 629L tumor cell line assessed as inhibition of cell proliferation by propidium iodide assay. The data set is classed as functional, cell-based.
The subject of data set [9] is LXF-289 cell line. As to the kind of experiment: Cytotoxicity against human LXF-289 cell line assessed as inhibition of cell proliferation by propidium iodide assay. The data set is classed as functional, cell-based.
The test system of data set [10] is LXFL 529. Description: Cytotoxicity against human LXFL 529 cells assessed as inhibition of cell proliferation by propidium iodide assay. The data set is classed as functional, cell-based.
For data set [11], the system named is NCI-H460. As to the kind of experiment: Cytotoxicity against human NCI-H460 cells assessed as inhibition of cell proliferation by propidium iodide assay. The data set is classed as functional, cell-based.
The test system of data set [12] is MAXF401 cell line. Description: Cytotoxicity against human MAXF401 cells assessed as inhibition of cell proliferation by propidium iodide assay. The data set is classed as functional, cell-based.
Data set [13] concerns MCF7. As to the kind of experiment: Cytotoxicity against human MCF7 cells assessed as inhibition of cell proliferation by propidium iodide assay. Type of data set: functional, cell-based.
Data set [14] deals with MEXF276L. As to the kind of experiment: Cytotoxicity against human MEXF276L cells assessed as inhibition of cell proliferation by propidium iodide assay. Type of data set: functional, cell-based.
In data set [15] the test system is MEXF514. Description: Cytotoxicity against human MEXF514 cells assessed as inhibition of cell proliferation by propidium iodide assay. The data set is classed as functional, cell-based.
In data set [16] the test system is OVCAR-3. Description: Cytotoxicity against human OVCAR-3 cells assessed as inhibition of cell proliferation by propidium iodide assay. The data set is classed as functional, cell-based.
The subject of data set [17] is PANC-1. As to the kind of experiment: Cytotoxicity against human PANC-1 cells assessed as inhibition of cell proliferation by propidium iodide assay. The data set is classed as functional, cell-based.
Data set [18] concerns CWR22R. Description: Cytotoxicity against human 22Rv1 cells assessed as inhibition of cell proliferation by propidium iodide assay. Type of data set: functional, cell-based.
For data set [19], the system named is DU-145. Description: Cytotoxicity against human DU-145 cells assessed as inhibition of cell proliferation by propidium iodide assay. The data set is classed as functional, cell-based.
Data set [20] relates to LNCaP. Description: Cytotoxicity against human LNCaP cells assessed as inhibition of cell proliferation by propidium iodide assay. Type of data set: functional, cell-based.
Data set [21] relates to PC-3M. As to the kind of experiment: Cytotoxicity against human PC-3M cells assessed as inhibition of cell proliferation by propidium iodide assay. The data set is classed as functional, cell-based.
Data set [22] concerns RXF 944. Description: Cytotoxicity against human RXF 944 cells assessed as inhibition of cell proliferation by propidium iodide assay. The data set is classed as functional, cell-based.
The test system of data set [23] is RXF 393. Description: Cytotoxicity against human RXF 393 cells assessed as inhibition of cell proliferation by propidium iodide assay. Type of data set: functional, cell-based.
Data set [24] can be described thus: Cytotoxicity against human GXF 251L cells assessed as inhibition of cell proliferation by propidium iodide assay. The data set is classed as functional, cell-based.
Data set [25] can be described thus: Cytotoxicity against human MEXF 462NL cells assessed as inhibition of cell proliferation by propidium iodide assay. The data set is classed as functional, cell-based.
Data set [26] can be described thus: Cytotoxicity against human OVXF 1619L cells assessed as inhibition of cell proliferation by propidium iodide assay. The data set is classed as functional, cell-based.
The nature of data set [27]: Cytotoxicity against human OVXF 899L cells assessed as inhibition of cell proliferation by propidium iodide assay. Type of data set: functional, cell-based.
The nature of data set [28]: Cytotoxicity against human RXF 486L cells assessed as inhibition of cell proliferation by propidium iodide assay. Type of data set: functional, cell-based.
Data set [29] deals with KB. Description: Cytotoxicity against human KB cells incubated for 48 hrs by SRB colorimetric assay. Type of data set: functional, cell-based. A general note: In SRB staining, fixed cells bind dye roughly in proportion to their protein.
Data set [30] relates to BC1 cell line. As to the kind of experiment: Cytotoxicity against human BC1 cell line incubated for 48 hrs by SRB colorimetric assay. The data set is classed as functional, cell-based. The conditions noted are these: BC1, 48 h.
Data set [31] deals with NCI-H187. As to the kind of experiment: Cytotoxicity against human NCI-H187 cells incubated for 48 hrs by SRB colorimetric assay. The data set is classed as functional, cell-based. Conditions: NCI-H187, 48 h.
Data set [32] in a line: Cytotoxicity against African green monkey Vero cells incubated for 48 hrs by SRB colorimetric assay. Type of data set: toxicity, cell-based, Chlorocebus sabaeus.
Data set [33] has as its system NCI-H23. Description: Growth inhibition of human NCI-H23 cells. The data set is classed as functional.
The test system of data set [34] is NUGC-3. Description: Growth inhibition of human NUGC-3 cells. Type of data set: functional.
The test system of data set [35] is HCT-116. Description: Cytotoxicity against human HCT-116 cells. The data set is classed as functional, cell-based.
Data set [36] deals with HCT-116/VM46. Description: Cytotoxicity against human HCT-116/VM46 cells. Type of data set: functional, cell-based.
For data set [37], the system named is A2780. Description: Cytotoxicity against human A2780 cells. The data set is classed as functional, cell-based.

As for `C=C(C)[C@H]1CC=C(CO)CC1`, the IC50 worked out at 78.5 µM in data set [1], 100 µM in data set [2] and 158 µM in data set [3].

Regarding `C/C=C(\C)[C@H](O[C@@H]1O[C@H](CO)[C@@H](O)[C@H](O)[C@H]1O)[C@H](C)/C=C(C)/C=C/C/C(C)=C/Cc1nc(OC)cc(O)c1C`, the IC50 in data set [4], in [5], in data set [6], in [7], in data set [8] and in [9] was 2 µM in each case. Besides, the IC50 in data set [10], in data set [11], in [12], in data set [13], in data set [14] and in [15] was 2 µM each time. Besides, the IC50 in data set [16], in data set [17], in data set [18], in [19], in [20] and in data set [21] was 2 µM throughout. Besides, the half-inhibitory concentration (IC50) in data set [22], in data set [23], in data set [24], in [25], in [26] and in data set [27] was 2 µM in each case. The IC50 in data set [28] amounted to 2 µM.

With `CO[C@H]1[C@H](O)[C@@H](O)[C@H](O[C@H](C[C@@]2(C)[C@H](C)CCC(=O)[C@@H]2C)/C(C)=C/Cc2c(O)c(Cl)c(C)c(C=O)c2O)O[C@@H]1CO`, the IC50 in data set [29] was found to be 19 µg/mL (≈ 31.7 µM); in data set [30], 8.4 µg/mL (≈ 14 µM); in data set [31], 7.9 µg/mL (≈ 13.2 µM). The same molecule displayed an IC50 at 48 h in data set [32] of 6.9 µg/mL (≈ 11.5 µM).

For `CC(C)[C@H](CCCCCCCCCCCCC(=O)NCC(=O)O)O[C@@H]1O[C@H](COC(=O)CCC(=O)O)[C@@H](O)[C@H](O)[C@H]1O`, the GI50 in data set [33] came to 25.2 µg/mL (≈ 41.6 µM); in [34] it was 17.8 µg/mL (≈ 29.4 µM).

Take `CO[C@]12C=C[C@](C)(O1)[C@@H](OC(=O)/C=C/c1cn(C)cn1)C[C@H]1C(C)=CC[C@H](C(C)C)[C@H]1/C=C\2CO[C@@H]1OC[C@@H](O)[C@@H](O)[C@@H]1OC(C)=O` [ELEUTHEROBIN]: the IC50 in [35], in data set [36] and in data set [37] was 0.01 µM throughout.
